Assay results from PMC7802075 (ACS Infectious Diseases, 2020).
Read-outs that look alike come from different tables or passages of the source. Where a SMILES comes first, the peptide text is derived from it.

Molecular target: T1, LmjIPCS (inositol phosphorylceramide synthase from L. major) (Leishmania major, UniProt E9AFX2)
T1 sequence (E9AFX2 1-338): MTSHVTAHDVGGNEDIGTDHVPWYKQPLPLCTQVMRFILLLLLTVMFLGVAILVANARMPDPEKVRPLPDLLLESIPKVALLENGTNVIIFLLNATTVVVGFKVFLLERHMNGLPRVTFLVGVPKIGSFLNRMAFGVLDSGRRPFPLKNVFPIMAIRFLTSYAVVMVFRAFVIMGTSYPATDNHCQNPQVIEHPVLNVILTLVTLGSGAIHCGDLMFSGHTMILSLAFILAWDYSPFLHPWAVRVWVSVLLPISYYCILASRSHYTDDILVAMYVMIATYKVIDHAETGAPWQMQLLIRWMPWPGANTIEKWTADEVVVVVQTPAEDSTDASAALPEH
Test: biochemical
Type: biochemical
Design: inhibition: dose or concentration left out as unconfirmed
Details: for inhibition at 20000 µM: read-out: 20mM inhibition LmjIPCS; for inhibition: read-out: inhibition LmjIPCS

[1] = screening of NINDS set, sheet Screen 1
[2] = NINDS set screen, single concentration printed as 20mM
[3] = NINDS set screen, compound at 20mM (so in the source)

Cc1ccc(S(=O)(=O)NC(=O)NN2CC3CCCC3C2)cc1 (stereo not shown) [GLICLAZIDE]
inhibition at 20000 µM: 14%

O=C1O[C@H](CO)[C@@H](O)[C@H](O)[C@H]1O [GLUCONOLACTONE]
inhibition at 20000 µM: 0.589%

N[C@H]1C(O)O[C@H](CO)[C@@H](O)[C@@H]1O (stereo partly shown) [GLUCOSAMINE]
inhibition at 20000 µM: 10%

N[C@@H](CCC(=O)N[C@@H](CS)C(=O)NCC(=O)O)C(=O)O [GLUTATHIONE]
inhibition at 20000 µM: -0.349%

COc1ccc(Cl)cc1C(=O)NCCc1ccc(S(=O)(=O)NC(=O)NC2CCCCC2)cc1 [GLYBURIDE]
inhibition: 13%

Cc1cc2c(C(C)C)c(O)c(O)c(C=O)c2c(O)c1-c1c(C)cc2c(C(C)C)c(O)c(O)c(C=O)c2c1O [GOSSYPOL]
20mM inhibition LmjIPCS: 37%

COC1=CC(=O)C[C@@H](C)[C@]12Oc1c(Cl)c(OC)cc(OC)c1C2=O [GRISEOFULVIN]
inhibition: 28%

COc1ccccc1OCC(O)CO (stereo not shown) [GUAIFENESIN]
inhibition at 20000 µM: -0.357%

N=C(N)N/N=C/c1c(Cl)cccc1Cl [GUANABENZ ACETATE]
20mM inhibition LmjIPCS: 55%

N=C(N)N [GUANIDINE]
20mM inhibition LmjIPCS: 20%

O=C(O)C1=CCCNC1 [GUVACINE]
inhibition (NINDS set screen): 14%

O=C(O)c1ccc(S(=O)(=O)N(Cl)Cl)cc1 [HALAZONE]
inhibition [1]: 10%

CC1(C)O[C@@H]2C[C@H]3[C@@H]4CCC5=CC(=O)CC[C@]5(C)[C@@]4(F)[C@@H](O)C[C@]3(C)[C@]2(C(=O)CCl)O1 [HALCINONIDE]
inhibition at 20000 µM: 20%

COc1ccc2c3c([nH]c2c1)C(C)=NCC3 [HARMALINE]
20mM inhibition LmjIPCS: 54%

CC1=NCCc2c1[nH]c1cc(O)ccc21 [HARMALOL]
inhibition (NINDS set screen): 17%

COc1ccc2c(c1)[nH]c1c(C)nccc12 [HARMINE]
inhibition at 20000 µM: 32%

Cc1[nH]ccc2c1[nH]c1cc(=O)ccc12 [HARMOL]
inhibition at 20000 µM: 15%

CC1(C)S[C@@H]2[C@H](N3C(=O)[C@@H](c4ccccc4)NC3(C)C)C(=O)N2[C@H]1C(=O)O [HETACILLIN]
inhibition [1]: 2%

Oc1c(Cl)cc(Cl)c(Cl)c1Cc1c(O)c(Cl)cc(Cl)c1Cl [HEXACHLOROPHENE]
20mM inhibition LmjIPCS: 41%

C[N+](C)(C)CCCCCC[N+](C)(C)C [HEXAMETHONIUM]
inhibition at 20000 µM: -4%

CC[C@H](c1ccc(O)cc1)[C@@H](CC)c1ccc(O)cc1 [HEXESTROL]
20mM inhibition LmjIPCS [2]: 34%

CCCCCCc1ccc(O)cc1O [HEXYLRESORCINOL]
20mM inhibition LmjIPCS [2]: 47%

NCCc1c[nH]cn1 [HISTAMINE]
inhibition at 20000 µM: 4.39%

C/C=C1\[C@H]2C=C(C)C[C@]1(N)c1ccc(=O)[nH]c1C2 [HUPERZINE A]
inhibition at 20000 µM: 24%

CCN(CC)CCNc1ccc(CO)c2sc3ccccc3c(=O)c12 [HYCANTHONE]
20mM inhibition LmjIPCS: 46%

NNc1nncc2ccccc12 [HYDRALAZINE]
inhibition at 20000 µM: 15%

NS(=O)(=O)c1cc2c(cc1Cl)NCNS2(=O)=O [HYDROCHLOROTHIAZIDE]
inhibition: 13%

CC(=O)OCC(=O)[C@@]1(O)CC[C@H]2[C@@H]3CCC4=CC(=O)CC[C@]4(C)[C@H]3[C@@H](O)C[C@@]21C [HYDROCORTISONE ACETATE]
inhibition at 20000 µM: 7%

CCCC(=O)O[C@]1(C(=O)CO)CC[C@H]2[C@@H]3CCC4=CC(=O)CC[C@]4(C)[C@H]3[C@@H](O)C[C@@]21C [HYDROCORTISONE BUTYRATE]
inhibition at 20000 µM: 5.61%

C[C@]12CCC(=O)C=C1CC[C@@H]1[C@@H]2[C@@H](O)C[C@@]2(C)[C@H]1CC[C@]2(O)C(=O)COC(=O)CCC(=O)O [HYDROCORTISONE HEMISUCCINATE]
20mM inhibition LmjIPCS [3]: 18%

C[C@]12CCC(=O)C=C1CC[C@@H]1[C@@H]2[C@@H](O)C[C@@]2(C)[C@H]1CC[C@]2(O)C(=O)CO [HYDROCORTISONE]
inhibition: 13%

NS(=O)(=O)c1cc2c(cc1C(F)(F)F)NCNS2(=O)=O [HYDROFLUMETHIAZIDE]
inhibition at 20000 µM: 9%

CC[C@H]1CN2CC[C@H]1C[C@@H]2[C@@H](O)c1ccnc2ccc(OC)cc12 [HYDROQUINIDINE]
20mM inhibition LmjIPCS [2]: 58%

Oc1ccc(O)cc1 [HYDROQUINONE]
inhibition at 20000 µM: -2.33%

CCN(CCO)CCCC(C)Nc1ccnc2cc(Cl)ccc12 (stereo not shown) [HYDROXYCHLOROQUINE]
inhibition (NINDS set screen): 31%

CCCCCC(=O)O[C@]1(C(C)=O)CC[C@H]2[C@@H]3CCC4=CC(=O)CC[C@]4(C)[C@H]3CC[C@@]21C [HYDROXYPROGESTERONE CAPROATE]
20mM inhibition LmjIPCS: 57%

Nc1c2c(nc3ccccc13)CCCC2O.O=C(O)/C=C\C(=O)O (stereo not shown) [HYDROXYTACRINE MALEATE]
20mM inhibition LmjIPCS: 11%

NC(=O)NO [HYDROXYUREA]
20mM inhibition LmjIPCS (single concentration 20mM as printed, screening of NINDS set, sheet Screen 1): 11%

OCCOCCN1CCN(C(c2ccccc2)c2ccc(Cl)cc2)CC1 (stereo not shown) [HYDROXYZINE PAMOATE]
20mM inhibition LmjIPCS: 45%

CN1[C@@H]2CC[C@H]1C[C@@H](OC(=O)[C@H](CO)c1ccccc1)C2 [HYOSCYAMINE]
inhibition at 20000 µM: 4%

CC(C)Cc1ccc(C(C)C(=O)O)cc1 (stereo not shown) [IBUPROFEN]
inhibition: 2.58%

COc1ccc(-c2oc3c(CC=C(C)C)c(O[C@@H]4O[C@H](CO)[C@@H](O)[C@H](O)[C@H]4O)cc(O)c3c(=O)c2O[C@@H]2O[C@@H](C)[C@H](O)[C@@H](O)[C@H]2O)cc1 [ICARIIN]
inhibition at 20000 µM: 10%

O=[N+]([O-])NC1=NCCN1Cc1ccc(Cl)nc1 [IMIDACLOPRID]
inhibition at 20000 µM: 8%

CC1Cc2ccccc2N1NC(=O)c1ccc(Cl)c(S(N)(=O)=O)c1 (stereo not shown) [INDAPAMIDE]
inhibition: 5%

O=C(O)c1cc2ccccc2[nH]1 [INDOLE-2-CARBOXYLIC ACID]
inhibition [1]: 8%

OCc1c[nH]c2ccccc12 [INDOLE-3-CARBINOL]
inhibition at 20000 µM: 11%

COc1ccc2c(c1)c(CC(=O)O)c(C)n2C(=O)c1ccc(Cl)cc1 [INDOMETHACIN]
inhibition: -3.42%

CC(C(=O)O)c1ccc(N2Cc3ccccc3C2=O)cc1 (stereo not shown) [INDOPROFEN]
inhibition at 20000 µM: -1.7%

O=C(CCCCC(=O)Nc1c(I)cc(I)c(C(=O)O)c1I)Nc1c(I)cc(I)c(C(=O)O)c1I [IODIPAMIDE]
inhibition at 20000 µM: 7%

Oc1c(I)cc(I)c2cccnc12 [IODOQUINOL]
inhibition (NINDS set screen): 23%

CCC(Cc1c(I)cc(I)c(N)c1I)C(=O)O (stereo not shown) [IOPANIC ACID]
20mM inhibition LmjIPCS: 7.62%

CC(C)[N+]1(C)[C@@H]2CC[C@H]1C[C@@H](OC(=O)C(CO)c1ccccc1)C2 (stereo partly shown) [IPRATROPIUM BROMIDE]
inhibition at 20000 µM: -7%

CC(C)NNC(=O)c1ccncc1 [IPRONIAZID]
inhibition (NINDS set screen): 31%

CCCCC1=NC2(CCCC2)C(=O)N1Cc1ccc(-c2ccccc2-c2nnn[nH]2)cc1 [IRBESARTAN]
inhibition: 1%

CC(C)Cn1c(=O)n(C)c(=O)c2[nH]cnc21 [ISOBUTYLMETHYLXANTHINE]
inhibition: 14%

O=C(/C=C/c1ccc(O)cc1)c1ccc(O)cc1O [ISOLIQUIRITIGENIN]
inhibition: 11%

NNC(=O)c1ccncc1 [ISONIAZID]
inhibition [1]: 9%

CC(C)[N+](C)(CCC(C(N)=O)(c1ccccc1)c1ccccc1)C(C)C [ISOPROPAMIDE]
inhibition: 11%

CC(C)NCC(O)c1ccc(O)c(O)c1 (stereo not shown) [ISOPROTERENOL]
inhibition: 11%

COC(=O)[C@H]1[C@H]2C[C@H]3c4[nH]c5cc(OC)ccc5c4CCN3C[C@H]2C[C@@H](OC(=O)c2cc(OC)c(OC)c(OC)c2)[C@@H]1OC [ISORESERPINE]
20mM inhibition LmjIPCS: 47%

Cc1cc(NC(=O)C2=C(O)c3ccccc3S(=O)(=O)N2C)no1 [ISOXICAM]
inhibition at 20000 µM: -3%

CC(COc1ccccc1)NC(C)C(O)c1ccc(O)cc1 (stereo not shown) [ISOXSUPRINE]
inhibition at 20000 µM: 32%

O=C1C=CC(=O)c2c(O)cccc21 [JUGLONE]
20mM inhibition LmjIPCS: 48%

C=C(C)[C@H]1CN[C@H](C(=O)O)[C@H]1CC(=O)O [KAINIC ACID]
inhibition at 20000 µM: 14%

NC[C@H]1O[C@H](O[C@H]2[C@H](O)[C@@H](O[C@H]3O[C@H](CO)[C@@H](O)[C@H](N)[C@H]3O)[C@H](N)C[C@@H]2N)[C@H](O)[C@@H](O)[C@@H]1O [KANAMYCIN]
20mM inhibition LmjIPCS: 26%

CC(=O)N1CCN(c2ccc(OCC3COC(Cn4ccnc4)(c4ccc(Cl)cc4Cl)O3)cc2)CC1 (stereo not shown) [KETOCONAZOLE]
20mM inhibition LmjIPCS: 69%

O=C(c1ccccc1)c1ccc2n1CCC2C(=O)O (stereo not shown) [KETOROLAC]
inhibition (NINDS set screen): 20%

CN1CCC(=C2c3ccccc3CC(=O)c3sccc32)CC1 [KETOTIFEN]
20mM inhibition LmjIPCS: 36%

c1coc(CNc2ncnc3[nH]cnc23)c1 [KINETIN]
inhibition: 16%

O=c1cc(CO)occ1O [KOJIC ACID]
inhibition: 11%

O=C(O)c1cc(=O)c2ccccc2[nH]1 [KYNURENIC ACID]
inhibition at 20000 µM: 6%

CC(C)C[C@H](N)C(=O)N[C@@H](C)C(=O)O [L-LEUCYL-L-ALANINE] (H-Leu-Ala-OH)
20mM inhibition LmjIPCS: 5.46%

N[C@H](CO)Cc1ccccc1 [L-PHENYLALANINOL]
inhibition at 20000 µM: 24%

CC(CCc1ccccc1)NCC(O)c1ccc(O)c(C(N)=O)c1 (stereo not shown) [LABETALOL]
20mM inhibition LmjIPCS: 50%

Cc1c(OCC(F)(F)F)ccnc1C[S+]([O-])c1nc2ccccc2[nH]1 (stereo not shown) [LANSOPRAZOLE]
20mM inhibition LmjIPCS [3]: 23%

CC(C)=CCC1=C(O)C(=O)c2ccccc2C1=O [LAPACHOL]
inhibition at 20000 µM: 5.55%

CC[C@@H](C(=O)[C@@H](C)[C@@H](O)[C@H](C)CCc1ccc(C)c(O)c1C(=O)[O-])[C@H]1O[C@](CC)([C@H]2CC[C@](O)(CC)[C@H](C)O2)C[C@@H]1C.[Na+] [LASALOCID SODIUM]
20mM inhibition LmjIPCS [2]: 41%

Cc1oncc1C(=O)Nc1ccc(C(F)(F)F)cc1 [LEFUNOMIDE]
20mM inhibition LmjIPCS: 10%

Nc1nc2c(c(=O)[nH]1)N(C=O)C(CNc1ccc(C(=O)N[C@@H](CCC(=O)O)C(=O)O)cc1)CN2 (stereo partly shown) [LEUCOVORIN]
inhibition (NINDS set screen): 17%
